# Experimental data: patent US20260232579A1 (Aspire Biopharma, Inc., priority 2023, published 2026)
# Assays:
# [1] = Determination of pH of aspirin samples (USP <791>); type: physicochemical; conditions: 1861.9 mg sample in 5.0 mL USP water, stirred 15 minutes
# Protocol: Determination of the pH of a solution of a formulation disclosed herein may be accomplished by methods known in the art, e.g., as described herein and by standard protocols, e.g., by protocols described in the United States Pharmacopoeia, Chapter <791>.
# The pH values of aspirin API and batch nos. F22006-001, F22006-004, F22006-002, F22006-003, and F22006-005 were determined using standard protocols as described in the United States Pharmacopoeia, Chapter <791>. […] The pH of the mixture was measured using a Mettler Toledo pH meter.
# [2] = Henderson-Hasselbalch calculation of ionized to non-ionized aspirin at saliva pH
# Excerpt: In its conjugate base/ionized form, aspirin is unable to efficiently cross the mucous membranes in the oral cavity to enter the blood stream, rendering oral mucosal (e.g., sublingual and/or buccal) delivery of ionized aspirin inefficient. The pH of saliva in the oral cavity ranges between 6.2 to 7.6 (Dawood, […]. Saliva and Oral Health. Int. J. Adv. Res. Biol. Sci. 2018, 5, 1-45) depending on the individual, with an average pH of 6.7. The Henderson-Hasselbalch equation, represented by Equation 2 below, provides the ratio of conjugate base to acid at a given pH of an acid having a given pKa. […] Exemplary calculations are provided below. Using the lower saliva pH limit of 6.2 in equation 1: Using the upper saliva pH limit of 7.6 in equation 1: […]
compound,measurement,setting,value
"CC(=O)Oc1ccccc1C(=O)O [Aspirin, 2-acetoxybenzoic acid]",pH,[1],2.62
same,ionized aspirin molecules for every one molecule of non-ionized aspirin,"[2]; average saliva pH value of 6.7, pKa […]",1584
same,ionized aspirin molecules for every one molecule of non-ionized aspirin,"[2]; lower saliva pH limit of 6.2, pKa […]",501
same,ionized aspirin molecules for every one molecule of non-ionized aspirin,"[2]; upper saliva pH limit of 7.6, pKa […]",12589
